Measured values as given in the supplement of paper PMC10307832.

Columns and labels:
Test in all cases: relative viability (nuclei count vs DMSO), 5 days (fraction); higher = more cells survive
[1] = compound: CN[C@@H]1C[C@H]2O[C@@](C)([C@@H]1OC)n1c3ccccc3c3c4c(c5c6ccccc6n2c5c31)C(=O)NC4 [Staurosporine] + CS(=O)(=O)CCNCc1ccc(-c2ccc3ncnc(Nc4ccc(OCc5cccc(F)c5)c(Cl)c4)c3c2)o1 [Lapatinib] (partner 2 µM)
Summary of the method: (§1)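 Lung cancer cell lines, seeded in 1536-well plates, were treated the following day by pin tool with a single drug or with five library-drug doses (not always all listed) in √10 steps on top of a fixed anchor-drug dose. Cells were fixed and nuclei stained in one step after 5 days, and nuclei were counted. Relative viability is the nuclei count for treated wells divided by that for vehicle wells, reported as medians of duplicate plates.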

[2] = compound: O=c1[nH]cc(F)c(=O)[nH]1 [5-Fluorouracil] + O=C(c1cc(Cc2n[nH]c(=O)c3ccccc23)ccc1F)N1CCN(C(=O)C2CC2)CC1 [Olaparib] (partner 8 µM)
Summary of the method: as §1

[3] = compound: O=c1[nH]cc(F)c(=O)[nH]1 [5-Fluorouracil] + N=C(N)NC(=N)NCCc1ccccc1 [Phenformin] (partner 250 µM)
Summary of the method: as §1

[4] = compound: CC1=C(CC(=O)O)c2cc(F)ccc2/C1=C\c1ccc([S+](C)[O-])cc1 [Sulindac] + N=C(N)NC(=N)NCCc1ccccc1 [Phenformin] (partner 250 µM)
Summary of the method: as §1

Row | Cell Line | relative viability ([1]; first compound 0.005 µM) | relative viability ([1]; first compound 0.01581 µM) | relative viability ([1]; first compound 0.05 µM) | relative viability ([1]; first compound 0.1581 µM) | relative viability ([1]; first compound 0.5 µM) | relative viability ([2]; first compound 0.02 µM) | relative viability ([2]; first compound 0.2 µM) | relative viability ([2]; first compound 0.6325 µM) | relative viability ([2]; first compound 2 µM) | relative viability ([3]; first compound 0.02 µM) | relative viability ([3]; first compound 0.2 µM) | relative viability ([3]; first compound 0.6325 µM) | relative viability ([3]; first compound 2 µM) | relative viability ([4]; first compound 0.08 µM) | relative viability ([4]; first compound 0.253 µM) | relative viability ([4]; first compound 0.8 µM) | relative viability ([4]; first compound 2.53 µM) | relative viability ([4]; first compound 8 µM)
1 | Calu-6 | 0.87 | 0.51 | 0.277 | 0.136 | 0.085 | 0.535 | 0.557 | 0.519 | 0.347 |  |  |  |  |  |  |  |  | 
2 | ChaGo-K-1 |  |  |  |  |  | 0.36 | 0.393 | 0.321 | 0.25 | 0.526 | 0.476 | 0.433 | 0.348 | 0.592 | 0.51 | 0.481 | 0.5 | 0.596
3 | EBC-1 | 0.187 | 0.177 | 0.189 | 0.122 | 0.127 | 0.769 | 0.772 | 0.759 | 0.44 |  |  |  |  |  |  |  |  | 
4 | IA-LM | 0.194 | 0.194 | 0.158 | 0.208 | 0.074 | 1 | 0.576 | 0.285 | 0.193 |  |  |  |  |  |  |  |  | 
5 | LCLC-103H |  |  |  |  |  | 0.801 | 0.741 | 0.559 | 0.46 | 0.339 | 0.327 | 0.258 | 0.249 | 0.361 | 0.318 | 0.286 | 0.315 | 0.323
6 | NCI-H441 |  |  |  |  |  | 0.514 | 0.438 | 0.292 | 0.269 | 0.927 | 0.979 | 0.553 | 0.387 | 0.992 | 1.03 | 0.456 | 0.808 | 0.958
7 | NCI-H522 |  |  |  |  |  | 0.547 | 0.618 | 0.647 | 0.621 | 0.584 | 0.637 | 0.682 | 0.678 | 0.709 | 0.715 | 0.689 | 0.688 | 0.674
8 | NCI-H1299 | 0.985 | 0.414 | 0.326 | 0.201 | 0.171 | 1.06 | 1.02 | 0.917 | 0.655 |  |  |  |  |  |  |  |  | 
9 | NCI-H1563 | 0.71 | 0.541 | 0.594 | 0.539 | 0.472 |  |  |  |  | 0.713 | 0.611 | 0.641 | 0.646 | 0.647 | 0.626 | 0.608 | 0.694 | 0.677
10 | NCI-H1623 |  |  |  |  |  |  |  |  |  | 0.45 | 0.582 | 0.364 | 0.335 | 0.561 | 0.595 | 0.663 | 0.632 | 0.6
11 | NCI-H1648 |  |  |  |  |  | 0.632 | 0.796 | 0.638 | 0.332 |  |  |  |  |  |  |  |  | 
12 | NCI-H1703 | 0.45 | 0.313 | 0.245 | 0.172 | 0.151 | 0.337 | 0.614 | 0.365 | 0.255 |  |  |  |  |  |  |  |  | 
13 | NCI-H2342 |  |  |  |  |  | 0.419 | 0.529 | 0.442 | 0.39 | 0.619 | 0.72 | 0.559 | 0.635 | 0.647 | 0.594 | 0.475 | 0.546 | 0.625
14 | SW 900 |  |  |  |  |  | 0.751 | 0.794 | 0.811 | 0.522 | 0.505 | 0.618 | 0.498 | 0.465 |  | 0.723 |  | 0.563 | 0.606
